{
  "source": "paper PMC6896057",
  "about": "“Dual PDK1/Aurora Kinase A Inhibitors Reduce Pancreatic Cancer Cell Proliferation and Colony Formation” (Cancers, 2019)",
  "assay_type_in_all_cases": "cell-based, human",
  "key": {"[1]": {"test_system": "PLK1 Thr210 phosphorylation in HPAF-II", "assay": "Western blot, phosphorylation of PLK1 at Thr210, nocodazole-synchronized cells", "settings": "5 μM, 1 h, nocodazole 200 ng/mL", "experimental": "(§1) Lysates were then assessed by Western blotting using the indicated antibodies. Representative blots of at least three independent experiments are shown. The percentage of phosphorylated PLCγ1 is calculated by normalization to the loading control GAPDH. […] The percentage of phosphorylated PLK1 is calculated by normalization to the loading control α-actinin. […] The percentage of phosphorylated Histone H3 is calculated by normalization to the loading control α-actinin.\n(§2) Cells (300,000 per well) from different cell lines were seeded in six-well plates. The next day, five wells were stimulated with nocodazole 200 ng/mL for 24 h. […] To analyze the expression of phosphorylated PLCγ, cells were incubated overnight in serum-free culture media. […] Cells were then collected by scraping and lysed in cold radioimmunoprecipitation assay buffer (150 mM sodium chloride, 1.0% NP-40 or Triton X-100, 0.5% sodium deoxycholate, 0.1% sodium dodecyl sulphate, 50 mM Tris HCl, pH 8.0) supplemented with 1X Protease/Phosphatase Inhibitor Cocktail (100X stock, Sigma Aldrich, St. Louis, MO, USA). Lysates were sonicated at 4 °C and centrifuged at 10,000 g for 10 min at 4 °C. Supernatants were transferred in a 1.5 mL Eppendorf tube and protein concentrations were determined using the Direct Detect Assay-Free cards and the Direct Detect Spectrometer (Merck Millipore, Decantur, IL, USA). […]"}, "[2]": {"test_system": "PLK1 Thr210 phosphorylation in AsPC-1", "assay": "Western blot, phosphorylation of PLK1 at Thr210, nocodazole-synchronized cells", "settings": "5 μM, 1 h, nocodazole 200 ng/mL", "experimental": "as §1, §2"}, "[3]": {"test_system": "phosphorylation of Aurora A at Thr288 in HPAF-II", "assay": "Western blot, Aurora A phosphorylation at Thr288, nocodazole-synchronized cells", "settings": "10 µM, 1 h, nocodazole 200 ng/mL", "experimental": "(§3) Lysates were then assessed by Western blotting using the indicated antibodies. Representative blots of at least three independent experiments are shown. In all blots, Akt total (A,B) and α-actinin (C,D) were used as loading control. In (A,B) membranes incubated with pAkt (Thr308) were stripped and re-incubated with anti Akt. The percentage of phosphorylated Akt is calculated by normalization to the loading control total Akt. In (C,D) membranes incubated with pAurora (Thr288) were stripped and re-incubated with anti-Aurora A. The percentage of phosphorylated Aurora A is calculated by normalization to the loading control α-actinin.\n(§4) Cells (300,000 per well) from different cell lines were seeded in six-well plates. The next day, five wells were stimulated with nocodazole 200 ng/mL for 24 h. […] To analyze the expression of phosphorylated PLCγ, cells were incubated overnight in serum-free culture media. […] Supernatants were transferred in a 1.5 mL Eppendorf tube and protein concentrations were determined using the Direct Detect Assay-Free cards and the Direct Detect Spectrometer (Merck Millipore, Decantur, IL, USA). […]"}, "[4]": {"test_system": "phosphorylation of Aurora A at Thr288 in AsPC-1", "assay": "Western blot, Aurora A phosphorylation at Thr288, nocodazole-synchronized cells", "settings": "10 µM, 1 h, nocodazole 200 ng/mL", "experimental": "as §3, §4"}, "[5]": {"test_system": "PLCγ1 Tyr783 phosphorylation in AsPC-1", "assay": "Western blot, EGF-induced phosphorylation of PLCγ1 at Tyr783", "settings": "5 μM, 30 min, then EGF 25 ng/mL 10 min", "experimental": "as §1\n(§5) Cells (300,000 per well) from different cell lines were seeded in six-well plates. The next day, five wells were stimulated with nocodazole 200 ng/mL for 24 h. Then four wells were treated for 2 h with the inhibitors of interest. To analyze the expression of phosphorylated PLCγ, cells were incubated overnight in serum-free culture media. […] Cells were then collected by scraping and lysed in cold radioimmunoprecipitation assay buffer (150 mM sodium chloride, 1.0% NP-40 or Triton X-100, 0.5% sodium deoxycholate, 0.1% sodium dodecyl sulphate, 50 mM Tris HCl, pH 8.0) supplemented with 1X Protease/Phosphatase Inhibitor Cocktail (100X stock, Sigma Aldrich, St. Louis, MO, USA). […] Supernatants were transferred in a 1.5 mL Eppendorf tube and protein concentrations were determined using the Direct Detect Assay-Free cards and the Direct Detect Spectrometer (Merck Millipore, Decantur, IL, USA). […]"}, "[6]": {"test_system": "phosphorylation of Akt at Thr308 in HPAF-II", "assay": "Western blot, FBS-induced phosphorylation of Akt at Thr308", "settings": "5 μM, FBS 1 h", "experimental": "as §3\n(§6) Cells (300,000 per well) from different cell lines were seeded in six-well plates. The next day, five wells were stimulated with nocodazole 200 ng/mL for 24 h. Then four wells were treated for 2 h with the inhibitors of interest. To analyze the expression of phosphorylated PLCγ, cells were incubated overnight in serum-free culture media. […] Supernatants were transferred in a 1.5 mL Eppendorf tube and protein concentrations were determined using the Direct Detect Assay-Free cards and the Direct Detect Spectrometer (Merck Millipore, Decantur, IL, USA). […]"}, "[7]": {"test_system": "phosphorylation of Akt at Thr308 in AsPC-1", "assay": "Western blot, FBS-induced phosphorylation of Akt at Thr308", "settings": "5 μM, FBS 1 h", "experimental": "as §3, §6"}, "[8]": {"test_system": "PLCγ1 Tyr783 phosphorylation in HPAF-II", "assay": "Western blot, EGF-induced phosphorylation of PLCγ1 at Tyr783", "settings": "5 μM, 30 min, then EGF 25 ng/mL 10 min", "experimental": "as §1, §5"}},
  "data": [
    {"compound": "CCN1CCN(C(=O)Cc2ccc(Nc3ncc(F)c(Nc4ccc(C(=O)Nc5ccccc5Cl)cc4)n3)cc2)CC1", "note": "[Aur I]", "values": [
      {"measurement": "effect on phosphorylation of PLK1 at Thr210", "setting": "[1]", "result": "reduction in the phosphorylation of PLK1"},
      {"measurement": "effect on phosphorylation of PLK1 at Thr210", "setting": "[2]", "result": "reduction in the phosphorylation of PLK1"},
      {"measurement": "effect on phosphorylation of Aurora A at Thr288", "setting": "[3]", "result": "efficiently reduced"},
      {"measurement": "effect on phosphorylation of Aurora A at Thr288", "setting": "[4]", "result": "efficiently reduced"}
    ]},
    {"compound": "CNc1nc(-c2ccc3c(N)n[nH]c3c2)cc(N2C[C@@H](C(=O)NC3CCCCC3)CC[C@H]2C)n1", "note": "[GSK2334470]", "values": [
      {"measurement": "effect on EGF-induced activation of PLCγ1 (Tyr783)", "setting": "[5]", "result": "strongly reduced"},
      {"measurement": "effect on FBS-induced phosphorylation of Akt at Thr308", "setting": "[6]", "result": "efficiently reduced"},
      {"measurement": "effect on FBS-induced phosphorylation of Akt at Thr308", "setting": "[7]", "result": "efficiently reduced"},
      {"measurement": "effect on EGF-induced activation of PLCγ1 (Tyr783)", "setting": "[8]", "result": "strongly reduced"}
    ]}
  ]
}
